Experimental data from US20110319360A1, “Method of including apoptosis/Cell death in leukemia cell using a purine nucleoside analogue” (U.S. Department of Veterans Affairs, priority 2010, published 2011).
Read-outs that look alike come from different tables or passages of the source.

How the values were obtained:
[1] = Prior in vivo toxicity studies in rodents
[2] = tested on: CD34+ hematopoietic progenitor cells (myeloid colonies); assay: Colony formation assay, myeloid colonies; assay type: cell-based, human
Protocol: (§1) CD34^+ hematopoietic progenitor cells were isolated from PBMCs from two healthy donors using the CD34 Microbead Kit (Miltenyi Biotec, Auburn, Calif.). 10^3 CD34^+-enriched cells were cultured in a 35 mm culture plate (1000 cells/plate) with or without LMP-420 or fludarabine in 1.1 ml Human Methylcellulose Complete Media (R&D Systems) according to the manufacturer's protocol. Plates were incubated for 14 days at 37° C. in humidified 5% CO2. Each treatment group was tested in triplicate. Colonies on plates were scored by two independent observers, blinded to the treatment groups, by microscopic evaluation under 10× and 20× power. Colonies were categorized as being of either erythroid or myeloid lineage.

[3] = tested on: CD34+ hematopoietic progenitor cells (erythroid colonies); assay: Colony formation assay, erythroid colonies; assay type: cell-based, human
Protocol: as §1

CLL cells = assay: MTS cytotoxicity assay on primary CLL cells; assay type: cell-based; conditions: Homo sapiens, CLL cell
Protocol: On the same day that heparin-anticoagulated venous blood was collected from participants, CLL cells were purified by methods described previously (Reference 11). Briefly, CLL cells were isolated from whole blood using the RosetteSep® B-cell enrichment cocktail (Stem Cell Technologies, Vancouver, BC, Canada) together with ficoll-Hypaque density gradient centrifugation. This method yielded CLL cell purity of greater than 95% CD5^+CD19^+ B-cells.
2.5×10^5 CLL cells were incubated in triplicate or quadruplicate in a 96-well tissue culture plate (Costar, Corning, N.Y.) with serial dilutions of LMP-420, fludarabine, and/or recombinant TNF-alpha (R&D Systems, Minneapolis, Minn.) in Hybridoma serum free media (SFM) (GIBCO/Invitrogen, Carlsbad, Calif.) containing 10% heat-inactivated fetal bovine serum (FBS) (Sigma) at 37° C. with 5% CO2. After 72 hours, 20 μl CellTiter 96® AQueous One Solution Cell Proliferation Assay (Promega, Madison, Wis.) MTS (3-(4,5 dimethylthiazol-2-yl)-5-(3-carboxymethoxyphenyl-2-(4-sulfophenyl)-2H-tetrazolium) reagent was added to each well and the absorbance was read at 490 nm on a Thermomax microplate reader (Molecular Devices, Sunnyvale, Calif.). We calculated fractional cytotoxicity as performed previously (Reference 12), comparing absorbance at 490 nm from treated cells to control cells incubated with media alone.
The concentration effective at killing 50% of CLL cells compared to media alone (ED50) was calculated when 50% fractional cytotoxicity occurred within the range of serial dilutions tested (Reference 12). If the ED50 fell below or above this range, it was set to either the lowest or the highest concentration tested, respectively, for the purposes of statistical analyses and graphical representation.

## Nc1nc(Cl)c2ncn(CCCCCB(O)O)c2n1 [LMP-420, 2-amino-6-chloro-9-[5(dihydroxyboryl)-pentyl] purine]
[1]
  peak plasma level at non-toxic doses: greater than 10 μM
[2]
  myeloid colony IC50 relative to CLL ED50: greater than 40 fold
[2]; Homo sapiens, 336 h, 14 days, healthy donors (n=2), read-out: mean IC50 for normal myeloid colony formation
  IC50: 25 µM
[3]
  erythroid colony IC50 relative to CLL ED50: greater than 40 fold
[3]; Homo sapiens, 336 h, 14 days, healthy donors (n=2), read-out: mean IC50 for normal erythroid colony formation
  IC50: 10 µM
CLL cells; 72 h, five patients of the nucleosome ELISA set, 72 hours, read-out: mean ED50, fractional cytotoxicity by MTS
  EC50: ~0.85 µM
CLL cells; 72 h, primary CLL cells, 72 hours, MTS, mean of 35 samples, read-out: mean concentration required to induce 50% cytotoxicity (ED50)
  EC50: 0.245 µM
CLL cells; CLL samples with favorable risk cytogenetic aberrations, n=27, read-out: median MTS ED50
  EC50: 0.162 µM
CLL cells; CLL samples with favorable risk cytogenetic aberrations, n=27, read-out: range of MTS ED50
  EC50: 0.027 to 2.52 µM
CLL cells; CLL samples with poor risk cytogenetic aberrations, n=5, read-out: median MTS ED50
  EC50: 0.332 µM
CLL cells; mean value from the MTS experiments, read-out: ED50 (μM), CLL
  EC50: 0.25 µM
